Experimental data published in PMC13252604, “First Generation Proteolysis Targeting Chimeras (PROTACs) for the Treatment of Progeria” (Advanced Science, 2026).

Tests used:
progerin = target: T1, progerin (Mus musculus, UniProt P48678, DEL608-657); experiment: Progerin degradation, immunoblot in Lmna^G609G/G609G fibroblasts; type: cell-based; conditions: Lmna^G609G/G609G fibroblasts, 5 µM, 8 h, vs vehicle
T1 construct: endogenous in cells; host or cells: immortalized (SV40-LT) fibroblasts from Lmna G609G/G609G mice
T1 sequence (P48678 with tags, fused parts or gaps DEL608-657 limits assumed): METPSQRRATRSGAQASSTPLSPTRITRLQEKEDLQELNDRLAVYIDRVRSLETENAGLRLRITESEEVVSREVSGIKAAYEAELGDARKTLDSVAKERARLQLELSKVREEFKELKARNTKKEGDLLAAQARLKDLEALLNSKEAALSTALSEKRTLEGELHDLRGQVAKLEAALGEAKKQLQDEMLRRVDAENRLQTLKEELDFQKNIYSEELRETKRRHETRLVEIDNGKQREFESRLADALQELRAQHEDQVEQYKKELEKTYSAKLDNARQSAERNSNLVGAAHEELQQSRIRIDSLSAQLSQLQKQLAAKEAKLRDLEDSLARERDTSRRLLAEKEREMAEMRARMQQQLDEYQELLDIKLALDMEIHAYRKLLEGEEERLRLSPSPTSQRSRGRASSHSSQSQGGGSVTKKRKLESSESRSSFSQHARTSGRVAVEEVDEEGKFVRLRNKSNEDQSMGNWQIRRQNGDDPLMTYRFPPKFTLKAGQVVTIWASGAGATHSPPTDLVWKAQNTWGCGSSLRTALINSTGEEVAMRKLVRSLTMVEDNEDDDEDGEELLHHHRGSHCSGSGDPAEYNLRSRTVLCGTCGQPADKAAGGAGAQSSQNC
Protocol: The ability of compounds 2‐6 to degrade progerin was evaluated in Lmna^G609G/G609G fibroblasts, derived from the progeria mouse model that most closely replicates the human disease phenotype. Lamin A/C antibody was used for immunodetection due to its prevalent use in this context, enabling simultaneous visualization of both lamins and progerin [15].
FIGURE 2 (A) Representative cropped immunoblots and quantification of progerin from Lmna^G609G/G609G fibroblasts. Cells were incubated with vehicle or indicated compound at 5 µM for 8 h. MW, molecular weight (in kDa) markers. (B, C) Concentration and time‐dependency of the reduction of progerin levels induced by compounds 2 and 9. Graphs show quantification of progerin in Lmna^G609G/G609G fibroblasts (immunoblots are shown in Supporting Figure S1). Cells were incubated with vehicle or the indicated compound concentration for 8 h. For time‐course experiments, cells were incubated with vehicle or indicated compound at 5 µM. Bar graphs show mean±sem of 3 independent experiments performed in duplicate. Data were analysed using one‐way ANOVA followed by Dunnett's post–hoc test comparing all groups to the vehicle; ^*, p < 0.05. […]
4. Cell lines and culture.
Progeroid mouse fibroblasts, kindly donated by Prof. Carlos López Otín (Oviedo University, Spain), were isolated from LmnaG609G/G609G mice[19] and wild-type (WT) littermates and immortalized by retroviral transduction with SV40 large T antigen (SV40-LT). Since LmnaG609G/G609G mouse represents the most suitable and widely accepted model of HGPS, as it most faithfully recapitulates the molecular and phenotypic features of the human disease, its use in this study is fully justified. Moreover, although this cell […]
cells have been extensively validated by additional independent studies.[15, 65, 66] […]
experiments, nor does it affect the conclusions presented in our study.
Mouse fibroblasts were grown in Dulbecco’s modified eagle medium (DMEM, Gibco) supplemented with 10% heat inactivated fetal bovine serum (FBS, Gibco), 50 U/mL penicillin, and 50 μg/mL streptomycin (Invitrogen). Human progeroid HGADFN167 LmnaG608G/G608G (G608G) or or healthy HGADFN168 Lmna+/+ (WT) fibroblasts, were obtained from The Progeria Research Foundation (RRIDs CVCL_1Y92 and CVCL_1Y93, respectively) and cultured in DMEM with 20% heat inactivated FBS, 50 U/mL penicillin and 50 μg/mL streptomycin. All cells were incubated in a humidified atmosphere at 37 °C in the presence of 5% CO2 and were confirmed to be free of mycoplasma contamination. […]
Measurements were performed in triplicate, and each experiment was repeated at least three times. The viability values were calculated from the percentage of viable cells with respect to 100% viability of the vehicle-treated cells.
6. Immunoblot and immunocytofluorescence analysis.
Mouse or human progeroid cells were seeded at density of […] or 5 x 10^4 cells respectively on 12-well plates and incubated for 24 h in DMEM medium. For proteosome-dependency assays, cells were pre-treated either with the proteasome inhibitor (S)-MG132 (20 µM) or with the NEDD8-activating enzyme inhibitor MLN4924 (5 µM) for 2 h prior to […]
compound exposure. Then, cells were incubated with compound of interest or DMSO for the appropriate time and lysed with cold laemmli buffer (50 mM Tris-HCl pH 7.4, 150 mM NaCl, 1% Igepal) with a mixture of protease and phosphatase inhibitors (1 mM PMSF, 10 mM NaF, 0.3 mg/mL CalyculinA, 1 mM sodium orthovanadate, 10 mM β-glycerol-phosphate; all from Sigma-Aldrich and complete protease inhibitor cocktail, from Roche). Proteins were denatured at 95 ᵒC for 5 min and the lysates were immediately used or stored at -20 ᵒC until use. Samples were analysed by electrophoresis in polyacrylamide gels (All Kd SDS-PAGE, BioRad) and the proteins transferred to nitrocellulose membranes (GE Healthcare, Amersham). After 1 h of incubation in blocking buffer [20 mM Tris pH 7.6, 150 mM NaCl and 0.1% Tween-20 (TBS-T) with […]

[1] = test system: Hutchinson‐Gilford Progeria Syndrome; conditions: progeria patients; cited from earlier work

In the case of `Cc1ncsc1-c1ccc(CNC(=O)[C@@H]2C[C@@H](O)CN2C(=O)[C@@H](NC(=O)CCCCC(=O)O[C@H]2Cc3cc4ccc(=O)oc4cc3OC2(C)C)C(C)(C)C)cc1` [compound 11], the “progerin levels (immunoblot quantification)” value (“progerin levels” below) (progerin) is reported as “neither the glutarimide derivative 10 nor the VHL‐ligand‐containing compound 11 led to a significant reduction in progerin levels”.
For `CN1C(=O)CCC(N2C(=O)c3cccc(NCCCCCC(=O)O[C@H]4Cc5cc6ccc(=O)oc6cc5OC4(C)C)c3C2=O)C1=O` (some centres unmarked) [compound 13], the “progerin levels” value (progerin) was “ineffective in lowering progerin levels”.
In the case of `NC(=O)N1CCC(CC(=O)N2CCC([C@H]3c4ncc(Br)cc4CCc4cc(Cl)cc(Br)c43)CC2)CC1` [lonafarnib], the “effect on key phenotypic hallmarks of progeria” value [1] is listed as “does not improve some of the key phenotypic hallmarks of progeria” and the “extension of average life expectancy” value [1] is listed as “up to 33%”.
With `CC1(C)Oc2cc3oc(=O)ccc3cc2C[C@@H]1OC(=O)CCCCCOc1ccc(C2CCC(=O)NC2=O)cc1` (some centres unmarked) [compound 10] the “progerin levels” value (progerin) was “neither the glutarimide derivative 10 nor the VHL‐ligand‐containing compound 11 led to a significant reduction in progerin levels”.
